{"source": "patent US4981855A", "about": "“Medicament for psoriasis” (Takeda Chemical Industries, Ltd., priority 1988, dated 1991)", "key": {"[1]": {"test_system": "Type III Allergic Reaction (Reversed Passive Arthus Reaction)", "test": "Type III allergic reaction (reversed passive Arthus reaction) in rats, oral (Experiment 1)", "assay_type": "in vivo, Rat (Jcl:SD)", "details": "Rat; for inhibition in vivo at 3 mg/kg: 1 h, 3 mg/kg P.O., one hour before egg albumin, blue spot area vs. control, * P < 0.05, ** P < 0.01, read-out: Inhibition rate (%); for ED50: P.O., read-out: ID50 values", "description": "Effect on Type III Allergic Reaction (Reversed Passive Arthus Reaction) in Rats\nA group consisting of six Jcl:SD rats (7 week old, male) was used. The hair of the back of the animals was cut, under ether anesthesia, and 1 ml each of a 0.5% solution of egg albumin in physiological saline solution was injected into the tail vein of each test animal, followed by intradermal injection of 0.1 ml of rabbit anti-egg albumin antiserum at each of the left and right sides of the back and a further intradermal injection of 0.1 ml of physiological saline solution at the left side. Three hours later, each animal was intraveneously injected with 1 ml of 1% Evans' blue physiological saline solution. Thirty minutes later, the test animals were exfoliated and the area(mm^2) of each of the blue spots was measured. […] By comparing the area(mm^2) of the blue spot in the test group (treated group) with that of the control group (untreated group), inhibition rate was determined."}, "[2]": {"test": "Acute toxicity in mice (Experiment 3)", "assay_type": "in vivo, Mouse (Jcl:ICR)", "details": "mouse, in vivo", "description": "(§1) The acute toxicity of the compound (A) was examined by using Jcl:ICR mice and JcL:Wistar rats."}, "Jcl:ICR mice": {"test_system": "Jcl:ICR mice", "test": "Acute toxicity in mice (Experiment 3)", "assay_type": "in vivo, Mouse (Jcl:ICR)", "details": "mice and rats; intraperitoneal, subcutaneous and oral (Table 3)", "description": "as §1"}, "[3]": {"test_system": "skin of the backs of rabbits (normal skin and damaged skin)", "test": "Four-week cumulative skin irritation test in rabbits (Experiment 4)", "assay_type": "in vivo, Rabbit", "details": "0.25 g once a day for 4 weeks", "description": "Four-Week Cumulative Skin Irritation Test in Rabbits [Procedure]\n0.25 g of each of white petrolatum (placebo) and 2.5% and 5.0% compound (A) ointments (of which base is white petrolatum) was applied to 2.5×2.5cm test sites (normal skin and damaged skin) formed on the skin of the backs of rabbits once a day for 4 weeks. The skin was observed daily according to the method of Draize [J. H. Draize et al., J. Pharmacol. Exp. Therap. 82, 337 (1944)]. On the day succeeding the completion of the administration, postmortem examinations were carried out and histopathologic examinations were conducted for the skin of the administrated sites."}, "[4]": {"test_system": "Reversed Passive Arthus Reaction", "test": "Rat reversed passive Arthus reaction, percutaneous ointment (Experiment 2)", "assay_type": "in vivo, Rat (Jcl:SD)", "details": "for Inhibition rate (%): ointment (white petrolatum base)", "description": "A group consisting of six Jcl:SD rats (7 week old, male) was used. The hair of the back of the animals was cut, under ether anesthesia, and 1 ml each of a 0.5% solution of egg albumin in physiological saline solution was injected into the tail vein of each test animal, followed by intradermal injection of 0.1 ml of rabbit anti-egg albumin antiserum at each of the left and right sides of the back and a further intradermal injection of 0.1 ml of physiological saline solution at the left side. Three hours later, each animal was intraveneously injected with 1 ml of 1% Evans' blue physiological saline solution. Thirty minutes later, the test animals were exfoliated and the area(mm^2) of each of the blue spots was measured. The test sample in a dose of 3 mg/kg was orally administered one hour before the injection of egg albumin. By comparing the area(mm^2) of the blue spot in the test group (treated group) with that of the control group (untreated group), inhibition rate was determined.\nIn place of the oral administration of 3 mg/kg of each specimen, two type of ointments (of which base is white petrolatum) different in specimen content as given in Table 2 and control petrolatum were applied to the reaction sites in an experiment in a similar manner as in Experiment 1."}, "[5]": {"test": "Acute toxicity in rats (Experiment 3)", "parameters": "species or system Rat (JcL:Wistar)", "details": "rat, in vivo", "description": "as §1"}}, "data": [{"smiles": "CCn1c(=O)c2c(N)n(C(=O)OC)nc2n(CC)c1=O", "note": "[Compound 1]", "values": [{"measurement": "inhibition in vivo at 3 mg/kg", "setting": "[1]", "value": 35, "unit": "%"}, {"measurement": "ED50", "setting": "[1]", "value": 13.7, "unit": "mg/kg"}]}, {"smiles": "CCCCn1c(=O)c2c(NC)n(C(=O)OC)nc2n(CCCC)c1=O", "note": "[Compound 8]", "values": [{"measurement": "inhibition in vivo at 3 mg/kg", "setting": "[1]", "value": 30, "unit": "%"}, {"measurement": "ED50", "setting": "[1]", "value": 30, "unit": "mg/kg"}]}, {"smiles": "CCCCn1c(=O)c2c(NC)n(C)nc2n(CCCC)c1=O", "note": "[Compound 9]", "values": [{"measurement": "inhibition in vivo at 3 mg/kg", "setting": "[1]", "value": 31, "unit": "%"}]}, {"smiles": "CCCCn1c(=O)n(CCC)c(=O)c2c(NC)n(C(=O)OC)nc21", "note": "[Compound (A)]", "values": [{"measurement": "LD50", "setting": "[2]; ip, female, intraperitoneal", "value": 1260, "unit": "mg/kg"}, {"measurement": "LD50", "setting": "[2]; ip, male, intraperitoneal", "value": 1040, "unit": "mg/kg"}, {"measurement": "LD50", "setting": "[2]; po, female", "value": 6310, "unit": "mg/kg"}, {"measurement": "LD50", "setting": "[2]; po, male", "value": 4650, "unit": "mg/kg"}, {"measurement": "LD50", "setting": "[2]; sc, female, subcutaneous", "value": "> 5000", "unit": "mg/kg"}, {"measurement": "LD50", "setting": "[2]; sc, male, subcutaneous", "value": "> 5000", "unit": "mg/kg"}, {"measurement": "acute toxicity", "setting": "Jcl:ICR mice", "value": "low in toxicity and can be safely administered"}, {"measurement": "cumulative skin irritation", "setting": "[3]; 2.5% ointment (white petrolatum base)", "value": "no cumulative skin irritation"}, {"measurement": "cumulative skin irritation", "setting": "[3]; 5% ointment (white petrolatum base)", "value": "no cumulative skin irritation"}, {"measurement": "Inhibition rate (%)", "setting": "[4]; 1.25 mg/site, *p < 0.05 vs. control", "value": 46, "unit": "%"}, {"measurement": "Inhibition rate (%)", "setting": "[4]; 2.5 mg/site, **p < 0.01 vs. control", "value": 59, "unit": "%"}, {"measurement": "effect on reversed passive Arthus reaction", "setting": "[4]; percutaneous administration", "value": "significantly depresses the reversed passive Arthus reaction"}, {"measurement": "LD50", "setting": "[5]; ip, female, intraperitoneal", "value": 580, "unit": "mg/kg"}, {"measurement": "LD50", "setting": "[5]; ip, male, intraperitoneal", "value": 650, "unit": "mg/kg"}, {"measurement": "LD50", "setting": "[5]; po, female", "value": 2380, "unit": "mg/kg"}, {"measurement": "LD50", "setting": "[5]; po, male", "value": 2730, "unit": "mg/kg"}, {"measurement": "LD50", "setting": "[5]; sc, female, subcutaneous", "value": "> 6500", "unit": "mg/kg"}, {"measurement": "LD50", "setting": "[5]; sc, male, subcutaneous", "value": "> 6500", "unit": "mg/kg"}]}, {"smiles": "CCCCn1c(=O)n(CCC)c(=O)c2c(NC)n(C(=O)OC)nc21", "note": "[Compound 6]", "values": [{"measurement": "inhibition in vivo at 3 mg/kg", "setting": "[1]", "value": 43, "unit": "%"}, {"measurement": "ED50", "setting": "[1]", "value": 5.3, "unit": "mg/kg"}]}, {"smiles": "CCCn1c(=O)c2c(N)n(C(=O)OC)nc2n(CCC)c1=O", "note": "[Compound 2]", "values": [{"measurement": "inhibition in vivo at 3 mg/kg", "setting": "[1]", "value": 50, "unit": "%"}, {"measurement": "ED50", "setting": "[1]", "value": 2.4, "unit": "mg/kg"}]}, {"smiles": "CCCn1c(=O)c2c(NC(C)=O)[nH]nc2n(CCC)c1=O", "note": "[Compound 3]", "values": [{"measurement": "inhibition in vivo at 3 mg/kg", "setting": "[1]", "value": 55, "unit": "%"}, {"measurement": "ED50", "setting": "[1]", "value": 2.9, "unit": "mg/kg"}]}, {"smiles": "CCCn1c(=O)c2c(N(C)C)n(C)nc2n(CCC)c1=O", "note": "[Compound 4]", "values": [{"measurement": "inhibition in vivo at 3 mg/kg", "setting": "[1]", "value": 56, "unit": "%"}]}, {"smiles": "CCCn1c(=O)c2c(N(C)C)nn(C)c2n(CCC)c1=O", "note": "[Compound 5]", "values": [{"measurement": "inhibition in vivo at 3 mg/kg", "setting": "[1]", "value": 53, "unit": "%"}]}, {"smiles": "CCCCn1c(=O)c2c(NC)n(C(=O)OC)nc2n(CCC)c1=O", "note": "[Compound 7]", "values": [{"measurement": "inhibition in vivo at 3 mg/kg", "setting": "[1]", "value": 49, "unit": "%"}, {"measurement": "ED50", "setting": "[1]", "value": 3, "unit": "mg/kg"}]}]}
